{
  "source": "patent US6716883B1",
  "about": "“Composition useful to treat periodontal disease” (priority 1998, dated 2004)",
  "type_in_all_cases": "cell-based",
  "key": {"[1]": {"test_system": "rat bone marrow cells (RBMC)", "assay": "APA in primary rat bone marrow cell (RBMC) bone formation system", "from_the_text": "Rat bone marrow cells were derived from femoral bones removed from adult male Wistar rats as described previously (Maniatopoulos et al., Cell Tissue Res, 1988, 254(2):317-330). These cells, grown in the presence of dexamethasone, vitamin C and b-glycerophosphate, differentiated into osteoblasts as shown by increases in APA and the production of mineralized bone nodules within 12-14 days. For the purposes of this investigation, we analyzed 10-16 day cultures for APA, as this was a reliable marker for osteoblastic differentiation in this system."}, "[2]": {"test_system": "rat SBMC (stromal bone marrow cell) line", "assay": "Mineralization (Alizarin Red staining) in rat SBMC line", "protocol": "Cells for the rat SBMC model were obtained from Dr. Sandu Pitaru (Tel Aviv University, Israel) and maintained in T25 tissue culture flasks (Sarstedt, Newton, N.C., USA) in a medium composed of αMEM+RNA+DNA+antibiotic supplemented with 10% fetal calf serum, 10 mM β-glycerophosphate, 10^−8M dexamethasone, 50 μg/ml vitamin C and 3 ng/ml fibroblast growth factor. The media were changed every 48 hours and the cells subcultured when almost confluent (approximately every 72 hrs). Cells were grown for a period of 1-2 weeks to allow for formation of mineralized bone nodules.\nSBMC cultures were assayed for AP activity using paranitrophenol-phosphate (pN-p) as the substrate as described above for CPO cultures. In some cases, AP activity was also measured using direct staining of SBMC cultures in 96 well plates as described previously (Tenenbaum et al., Anat Rec. 1995. 242(2):200-10). Mineralization in the SBMC cultures was determined using Alizarin Red staining in situ that was assessed with the Titertek spectrophotometer set at 525 nm."}, "[3]": {"test_system": "chick periosteal osteogenesis (CPO) cultures", "assay": "Alkaline phosphatase activity (APA) in CPO cultures", "protocol": "In this experiment, the chick periosteal osteogenesis (CPO) model was used to determine if bone loss is induced by dioxin. The CPO model has been described in detail previously (Nijweide, Proc. Kon. Ned. Akad. Wet. 1975. C78:410-417) and was prepared for the purposes of this experiment as set out below.\nFollowing sacrifice, two triangular calvarial explants were removed by cutting along the central suture, transversely along the posterior suture and laterally above the eye in 17-day-old embryonic chicks. The ectocranial periosteum (outer curved surface) was peeled off using forceps under microscopic magnification and folded so that the surface originally facing bone was in apposition to itself as described previously (Tenenbaum et al., Calcif Tissue Int. 34:76-79). The folded explant was then placed on a Millipore filter (HA 0.45 μm), which was transferred onto a stainless steel grid resting in the center well of an organ culture dish (Falcon Plastics, Lincoln Park, N.J., USA) that was filled with culture media to a level such that the culture was supported at the gas-liquid interface (˜1.5 ml of media). Three cultures were placed in each dish which was then covered and incubated at 37° C. in a humidified atmosphere containing 5% CO2 in air. Media changes occurred on days 2 and 4, and the medium was comprised of BGJb medium (Fitton-Jackson Modification) with L-glutamine (Gibco, Grand Island, N.Y., USA) and supplemented with 2% antibiotic (10,000 units/ml Penicillin G sodium, 10,000 μg/ml Streptomycin sulfate in 0.85% saline) (Gibco), 10% fetal calf serum (Gibco), 10^−7M dexamethasone (Sigma, St. Louis, Mo., USA), 10 mM β-glycerophosphate, and 300 μg/ml L-ascorbate (Gibco).\nFor the purposes of this investigation, the effects of a potent aryl hydrocarbon, TCDD (2,3,7,8-tetrachlorodibenzo-p-dioxin or dioxin) on the early events occurring during osteogenesis were determined. The CPO model traverses a number of phases of osteogenesis. Therefore, it was possible to design temporal or “window” experiments in order to determine the phases of osteogenesis that were sensitive to TCDD and/or resveratrol. […] All cultures were maintained for the entire 6-day period. The compounds were administered over four different temporal phases, as outlined below in the time-line diagram: a) days 0-6; b) days 0-2; c) days 2-4 or d) days 4-6 (Note: all cultures were stopped at 6 days). Results were compared to e) vehicle alone over days 0-6. [drawing 1]\nOn day 6, the culture dishes were placed on ice and individual cultures were transferred to separate test tubes and stored at −20° C. for further analysis.\nCPO cultures were assayed for AP activity using paranitrophenol-phosphate (pN-p) as the substrate (Demetriou et al. J Biol Chem. 1996. 271(22)12755-61). The intensity of the colour change was evaluated using a Titertek® Multiskan® MCC/340 Spectrophotometer (Flow Laboratories, Mississauga, ON, Canada) and compared to a standard curve obtained from a serial dilution of 10 mM pN with bicarbonate buffer (pH 7.4) in flat bottomed Titertek 96-well plates as described previously (Demetriou et al., 1996, supra). The reaction was stopped with 100 μl of 0.2N NaOH and pN-p levels read at 405 nm on the Titertek. Calcium incorporation was assayed in the pellets produced from centrifugation of the homogenized CPO cultures following hydrolysis in 500 μl of 0.5N HCl and then measured using atomic absorption spectrophotometry (Sukhu et al. Endocrinology. 1997. 138 (8):3269-75)."}},
  "data": [
    {"smiles": "Clc1cc2c(cc1Cl)Oc1cc(Cl)c(Cl)cc1O2", "note": "[TCDD, 2,3,7,8-tetrachlorodibenzo-p-dioxin]", "values": [
      {"measurement": "inhibition at 0.001 µM", "setting": "[1]; Rattus norvegicus, Bone marrow cell, read-out: inhibition of osteodifferentiation as measured by APA, compared to alcohol-treated control", "result": "~50", "unit": "%"},
      {"measurement": "reduction in mineralization (Alizarin Red Staining), dose dependence", "setting": "[2]; TCDD 4.12×10^−11M to 1.52×10^−12M", "result": "dose dependant reduction in mineralization"},
      {"measurement": "decrease in mineralization", "setting": "[2]; in the presence of TCDD", "result": "approximately 75%"},
      {"measurement": "reduction in AP activity", "setting": "[3]; 10^−9M TCDD alone during days 0-2, p<0.05 vs. vehicle", "result": 53, "unit": "%"},
      {"measurement": "change in AP activity", "setting": "[3]; 10^−9M TCDD alone during days 2-4 or 4-6", "result": "did not significantly alter AP activity"},
      {"measurement": "reduction in AP activity versus vehicle alone", "setting": "[3]; 10^−9M TCDD over a 6-day period", "result": 80, "unit": "%"}
    ]},
    {"smiles": "Oc1ccc(C=Cc2cc(O)cc(O)c2)cc1", "note": "[resveratrol, 3,5,4′-trihydroxystilbene]", "values": [
      {"measurement": "abrogation of TCDD effects on APA", "setting": "[1]; resveratrol 10^−6 molar in alcohol, added together or singly between days 4-10, FIG. 9", "result": "completely abrogated the effects of TCDD"},
      {"measurement": "effect on APA", "setting": "[1]; resveratrol alone", "result": "no significant effects"},
      {"measurement": "effect on TCDD-induced decrease in mineralization", "setting": "[2]; resveratrol with TCDD", "result": "attenuated"},
      {"measurement": "change in AP activity", "setting": "[3]; 10^−6M resveratrol alone over days 0-6, 0-2, 2-4 or 4-6", "result": "No significant change in AP activity"},
      {"measurement": "increase in AP activity in comparison to TCDD alone", "setting": "[3]; resveratrol 10^−5M, 10^−6M and 10^−7M with TCDD, FIG. 2a", "result": "2-4 fold"}
    ]}
  ]
}
